{"source": "patent US12350270B2", "about": "“Antimalarial agents” (Merck Sharp & Dohme LLC, priority 2019, dated 2025)", "data": [{"system": "parasites (ring stage, in human red blood cell culture)", "test": "Parasite LDH growth assay (antiparasite potency, Parasite Assay)", "assay_type": "cell-based, Plasmodium falciparum", "settings": "0.7% rings, 2% haematocrit, 72 hours at 37° C., LDH readout of parasite growth", "method": "(§1) Assessing Antiparasite Potency in a Parasite LDH Growth Assay (Parasite Assay)\n(§2) The parasite stock was maintained at 4% haematocrit in RPMI-Hepes media buffered with sodium bicarbonate and supplemented with 5% heat inactivated human serum and 0.5% albumax.\n(§3) On the day of assay set up, a blood smear of the parasite culture was Giemsa stained and counted. The parasitemia was adjusted to 0.7% rings and the haematocrit was diluted to 2% in RPMI-Hepes media buffered with sodium bicarbonate and supplemented with 5% heat inactivated human serum and 0.5% albumax. 30 ul of diluted parasites are then added into 10 ul of media+compound in pre-prepared Greiner TC assay plates. Parasite assay plates were placed in gassed humidified boxes in single layer and allowed to incubate at 37° C. for 72 hours. After 72 hours growth, assay plates are sealed with parafilm and frozen flat, in single file at −80° C. overnight. On the following day, assay plates are allowed to thaw at room temperature for 4 hours to which an LDH assay is performed to measure parasite growth.", "units": {"EC50": "nM"}, "values": [{"smiles": "CCC1(CC)CC(=O)N([C@@H]2CCOc3ccc(C(=O)NC4c5ccccc5OCC4O)cc32)C(=N)N1", "note": "(single isomer, unassigned) [Example 8A]", "EC50": 10}, {"smiles": "CCC1(CC)CC(=O)N([C@@H]2CCOc3ccc(C(=O)NC4c5ccccc5OCC4O)cc32)C(=N)N1", "note": "(single isomer, unassigned) [Example 8B]", "EC50": 22}, {"smiles": "CCC1(CC)CC(=O)N([C@@H]2CCOc3ccc(C(=O)NC4c5ccccc5OCC4O)cc32)C(=N)N1", "note": "(single isomer, unassigned) [Example 8C]", "EC50": 120}, {"smiles": "CCC1(CC)CC(=O)N([C@@H]2CCOc3ccc(C(=O)NC4c5ccccc5OCC4O)cc32)C(=N)N1", "note": "(single isomer, unassigned) [Example 8D]", "EC50": 86}, {"smiles": "CCC1C[C@@H](N2C(=N)NC(CC)(CC)CC2=O)c2cc(C(=O)N[C@@H]3c4ccccc4C[C@H]3O)ccc2O1", "note": "(single isomer, unassigned) [Example 9A]", "EC50": 0.9}, {"smiles": "CCC1C[C@@H](N2C(=N)NC(CC)(CC)CC2=O)c2cc(C(=O)N[C@@H]3c4ccccc4C[C@H]3O)ccc2O1", "note": "(single isomer, unassigned) [Example 9B]", "EC50": 170}, {"smiles": "CCC1C[C@@H](N2C(=N)NC(CC)(CC)CC2=O)c2cc(C(=O)NC3c4ccccc4OC(C)(C)C3O)ccc2O1", "note": "(single isomer, unassigned) [Example 13A]", "EC50": 0.8}, {"smiles": "CCC1(CC)CC(=O)N([C@@H]2CC(COC)Oc3ccc(C(=O)N[C@H]4CC(C)(C)Oc5ccccc54)cc32)C(=N)N1", "note": "(single isomer, unassigned) [Example 16A]", "EC50": 0.6}, {"smiles": "CCC1(CC)CC(=O)N([C@@H]2CC(COC)Oc3ccc(C(=O)N[C@H]4CC(C)(C)Oc5ccccc54)cc32)C(=N)N1", "note": "(single isomer, unassigned) [Example 16B]", "EC50": 95}, {"smiles": "CCC1(CC)CC(=O)N([C@@H]2CCOc3ccc(C(=O)N[C@@H]4c5ccccc5OC(C(F)(F)F)C4O)cc32)C(=N)N1", "note": "(single isomer, unassigned) [Example 32A]", "EC50": 7.9}, {"smiles": "CCC1(CC)CC(=O)N([C@@H]2CCOc3ccc(C(=O)N[C@@H]4c5ccccc5OC(C(F)(F)F)C4O)cc32)C(=N)N1", "note": "(single isomer, unassigned) [Example 32B]", "EC50": 290}, {"smiles": "CCC1(CC)CC(=O)N([C@@H]2CC(C)(C)Oc3ccc(C(=O)N[C@@H]4c5ccccc5CC4(C)O)cc32)C(=N)N1", "note": "(single isomer, unassigned) [Example 42A]", "EC50": 1}, {"smiles": "CCC1(CC)CC(=O)N([C@@H]2CC(C)(C)Oc3ccc(C(=O)N[C@@H]4c5ccccc5CC4(C)O)cc32)C(=N)N1", "note": "(single isomer, unassigned) [Example 42B]", "EC50": 3.2}, {"smiles": "CC(C)[C@]1(C)CC(=O)N([C@@H]2CC(C)(C)Oc3ccc(C(=O)N[C@@H]4c5ccccc5CC4(C)O)cc32)C(=N)N1", "note": "(single isomer, unassigned) [Example 43A]", "EC50": 8.1}, {"smiles": "CC(C)[C@]1(C)CC(=O)N([C@@H]2CC(C)(C)Oc3ccc(C(=O)N[C@@H]4c5ccccc5CC4(C)O)cc32)C(=N)N1", "note": "(single isomer, unassigned) [Example 43B]", "EC50": 21}, {"smiles": "CCC1(CC)CC(=O)N([C@@H]2CCOc3ccc(C(=O)N[C@@H]4c5ccccc5CC4(C)O)cc32)C(=N)N1", "note": "(single isomer, unassigned) [Example 44B]", "EC50": 2.8}, {"smiles": "CC1(C)CC(=O)N([C@@H]2CC(C)(C)Oc3ccc(C(=O)N[C@@H]4c5ccccc5CC4(C)O)cc32)C(=N)N1", "note": "(single isomer, unassigned) [Example 54B]", "EC50": 160}, {"smiles": "CCC1(CC)C[C@@H](N2C(=N)NC(C)(C)CC2=O)c2cc(C(=O)N[C@@H]3c4ccccc4CC3(C)O)ccc2O1", "note": "(single isomer, unassigned) [Example 55A]", "EC50": 24.5}, {"smiles": "CCC1(CC)C[C@@H](N2C(=N)NC(C)(C)CC2=O)c2cc(C(=O)N[C@@H]3c4ccccc4CC3(C)O)ccc2O1", "note": "(single isomer, unassigned) [Example 55B]", "EC50": 83.1}, {"smiles": "CCC1(CC)CC(=O)N([C@@H]2CCOc3ccc(C(=O)N[C@H]4c5ccccc5OCC4(C)O)cc32)C(=N)N1", "note": "(single isomer, unassigned) [Example 60B]", "EC50": 1.7}, {"smiles": "CCC1(CC)CC(=O)N([C@@H]2CCOc3ccc(C(=O)NC4c5ccccc5OC4(C)COC)cc32)C(=N)N1", "note": "(single isomer, unassigned) [Example 64A]", "EC50": 12}, {"smiles": "CCC1(CC)CC(=O)N([C@@H]2CCOc3ccc(C(=O)NC4c5ccccc5OC4(C)COC)cc32)C(=N)N1", "note": "(single isomer, unassigned) [Example 64B]", "EC50": 0.9}, {"smiles": "CCC1(CC)CC(=O)N([C@@H]2CCOc3ccc(C(=O)NC4c5ccccc5OC4(C)COC)cc32)C(=N)N1", "note": "(single isomer, unassigned) [Example 64C]", "EC50": 64}, {"smiles": "CCC1(CC)CC(=O)N([C@@H]2CCOc3ccc(C(=O)NC4c5ccccc5OC4(C)COC)cc32)C(=N)N1", "note": "(single isomer, unassigned) [Example 64D]", "EC50": 42}, {"smiles": "CCOC(=O)C1(C)Oc2ccccc2C1NC(=O)c1ccc2c(c1)[C@H](N1C(=N)NC(CC)(CC)CC1=O)CCO2", "note": "(single isomer, unassigned) [Example 65A]", "EC50": 68}, {"smiles": "CCOC(=O)C1(C)Oc2ccccc2C1NC(=O)c1ccc2c(c1)[C@H](N1C(=N)NC(CC)(CC)CC1=O)CCO2", "note": "(single isomer, unassigned) [Example 65B]", "EC50": 2.6}, {"smiles": "CCOC(=O)C1(C)Oc2ccccc2C1NC(=O)c1ccc2c(c1)[C@H](N1C(=N)NC(CC)(CC)CC1=O)CCO2", "note": "(single isomer, unassigned) [Example 65C]", "EC50": 26}, {"smiles": "CCC1(CC)CC(=O)N([C@H]2c3cc(C(=O)N[C@@H]4c5ccccc5OC(C)(C)[C@H]4O)ccc3OC2(C)COC)C(=N)N1", "note": "(single isomer, unassigned) [Example 73A]", "EC50": 0.3}, {"smiles": "CCC1(CC)CC(=O)N([C@H]2c3cc(C(=O)N[C@@H]4c5ccccc5OC(C)(C)[C@H]4O)ccc3OC2(C)COC)C(=N)N1", "note": "(single isomer, unassigned) [Example 73B]", "EC50": 1.7}, {"smiles": "CCC1(CC)CC(=O)N([C@H]2c3cc(C(=O)N[C@H]4CC(C)(C)Oc5ccccc54)ccc3O[C@]2(C)COC)C(=N)N1", "note": "(single isomer, unassigned) [Example 74A]", "EC50": 0.3}, {"smiles": "CCC1(CC)CC(=O)N([C@H]2c3cc(C(=O)N[C@H]4CC(C)(C)Oc5ccccc54)ccc3O[C@]2(C)COC)C(=N)N1", "note": "(single isomer, unassigned) [Example 74B]", "EC50": 6.5}]}, {"system": "parasites (ring stage, in human red blood cell culture)", "test": "Parasite LDH growth assay (antiparasite potency, Parasite Assay)", "assay_type": "cell-based, Plasmodium falciparum", "settings": "Plasmodium falciparum, Erythrocyte, 72 h, 0.7% rings, 2% haematocrit, 72 hours at 37° C., LDH readout of parasite growth", "method": "as §1, §2, §3", "units": {"EC50": "nM"}, "values": [{"smiles": "CC(C)[C@]1(C)CC(=O)N([C@@H]2CCOc3ccc(C(=O)NC4c5ccccc5OC(C)(C)C4O)cc32)C(=N)N1", "note": "(single isomer, unassigned) [Example 11A]", "EC50": 0.9}, {"smiles": "CCC1(CC)CC(=O)N([C@@H]2CC(COC)Oc3ccc(C(=O)N[C@@H]4c5ccccc5C[C@H]4O)cc32)C(=N)N1", "note": "(single isomer, unassigned) [Example 17A]", "EC50": 2.7}, {"smiles": "CCC1(CC)CC(=O)N([C@@H]2CCOc3ccc(C(=O)N[C@@H]4c5ccccc5CC4(C)O)cc32)C(=N)N1", "note": "(single isomer, unassigned) [Example 44A]", "EC50": 1.5}, {"smiles": "CC1(C)CC(=O)N([C@@H]2CC(C)(C)Oc3ccc(C(=O)N[C@@H]4c5ccccc5CC4(C)O)cc32)C(=N)N1", "note": "(single isomer, unassigned) [Example 54A]", "EC50": 190}, {"smiles": "CCC1(CC)CC(=O)N([C@@H]2CCOc3ccc(C(=O)N[C@H]4c5ccccc5OCC4(C)O)cc32)C(=N)N1", "note": "(single isomer, unassigned) [Example 60A]", "EC50": 1.3}]}]}
